# Experimental data as given in ChEMBL document CHEMBL1201862, “PubChem BioAssay data set” (2004).
#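 A five-concentration, 48-hour dose response in 96-well plates underlies each endpoint, interpolated linearly between surrounding concentrations. At the GI50, growth is halved.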 Active and inactive are the calls of the source. Cut-off read from the data, not from the text of the source: active = GI50 up to about 1.1 µM and inactive = higher.
# Columns and labels:
# Assay in all cases: growth of human tumour cells (NCI), 48 h
# RXF 393 = test system: RXF 393
# SK-MEL-28 = test system: SK-MEL-28
# PC-3 = test system: PC-3
# MDA-MB-231 = test system: MDA-MB-231
# KM12 = test system: KM12
# BT-549 = test system: BT-549
# HOP-62 = test system: HOP-62
# SK-OV-3 = test system: SK-OV-3
# SR = test system: SR
# U-251 = test system: U-251
# TK-10 = test system: TK-10
# HT-29 = test system: HT-29
# M14 = test system: M14
# NCI-H23 = test system: NCI-H23
# SN12C = test system: SN12C
# OVCAR-3 = test system: OVCAR-3
# SW-620 = test system: SW-620
# RPMI-8226 = test system: RPMI-8226
# SF-268 = test system: SF-268
# SNB-75 = test system: SNB-75
SMILES,GI50 (RXF 393),GI50 (SK-MEL-28),GI50 (PC-3),GI50 (MDA-MB-231),GI50 (KM12),GI50 (BT-549),GI50 (HOP-62),GI50 (SK-OV-3),GI50 (SR),GI50 (U-251),GI50 (TK-10),GI50 (HT-29),GI50 (M14),GI50 (NCI-H23),GI50 (SN12C),GI50 (OVCAR-3),GI50 (SW-620),GI50 (RPMI-8226),GI50 (SF-268),GI50 (SNB-75)
O=C(CSc1ncnc2[nH]cnc12)c1ccccc1,> 76.2 µM (inactive),> 100 µM (inactive),> 100 µM (inactive),> 100 µM (inactive),> 41.1 µM (inactive),> 100 µM (inactive),> 100 µM (inactive),> 100 µM (inactive),92.5 µM (inactive),> 100 µM (inactive),> 66.7 µM (inactive),> 100 µM (inactive),> 88.3 µM (inactive),> 100 µM (inactive),> 100 µM (inactive),> 100 µM (inactive),> 100 µM (inactive),> 64.3 µM (inactive),> 100 µM (inactive),–
CCOC(=O)Cc1nn2c(=O)cc(C)nc2s1,> 100 µM (inactive),> 100 µM (inactive),> 100 µM (inactive),> 100 µM (inactive),> 100 µM (inactive),> 100 µM (inactive),> 100 µM (inactive),> 100 µM (inactive),> 100 µM (inactive),> 100 µM (inactive),> 100 µM (inactive),> 100 µM (inactive),> 100 µM (inactive),> 100 µM (inactive),> 100 µM (inactive),> 100 µM (inactive),> 100 µM (inactive),> 100 µM (inactive),> 100 µM (inactive),> 100 µM (inactive)
c1ccc2c(c1)ccc1ncccc12,> 100 µM (inactive),> 100 µM (inactive),98.2 µM (inactive),> 100 µM (inactive),> 100 µM (inactive),47.1 µM (inactive),> 100 µM (inactive),–,58.2 µM (inactive),79.3 µM (inactive),> 100 µM (inactive),> 100 µM (inactive),> 100 µM (inactive),> 100 µM (inactive),> 100 µM (inactive),> 100 µM (inactive),> 100 µM (inactive),> 100 µM (inactive),> 100 µM (inactive),> 100 µM (inactive)
CC(C)C1N(C)c2ccc(Cl)cc2[C@H]2c3ccccc3CCN12 (some centres not stated),47.5 µM (inactive),54.8 µM (inactive),62.4 µM (inactive),24.4 µM (inactive),50.9 µM (inactive),> 100 µM (inactive),> 100 µM (inactive),> 100 µM (inactive),29.9 µM (inactive),61.5 µM (inactive),89.9 µM (inactive),22.1 µM (inactive),55.1 µM (inactive),> 100 µM (inactive),45.2 µM (inactive),27.2 µM (inactive),97.3 µM (inactive),18.7 µM (inactive),> 100 µM (inactive),61.8 µM (inactive)
CCOC(=O)c1cc2c3c(cc(OC)c2[nH]1)N(C(=O)OCC)CC3,> 100 µM (inactive),> 100 µM (inactive),> 100 µM (inactive),> 100 µM (inactive),> 100 µM (inactive),> 100 µM (inactive),> 100 µM (inactive),> 100 µM (inactive),86.1 µM (inactive),> 100 µM (inactive),–,> 100 µM (inactive),> 100 µM (inactive),> 100 µM (inactive),> 100 µM (inactive),> 100 µM (inactive),> 100 µM (inactive),> 100 µM (inactive),> 100 µM (inactive),> 100 µM (inactive)
N#CC1(O)CCCCCCCCCCC1,> 100 µM (inactive),> 100 µM (inactive),> 100 µM (inactive),> 100 µM (inactive),> 100 µM (inactive),> 100 µM (inactive),> 100 µM (inactive),> 100 µM (inactive),> 100 µM (inactive),> 100 µM (inactive),> 100 µM (inactive),> 100 µM (inactive),> 100 µM (inactive),> 100 µM (inactive),> 100 µM (inactive),> 100 µM (inactive),> 100 µM (inactive),> 100 µM (inactive),> 100 µM (inactive),–
Cc1cccc2c1Oc1ccccc1C2NC(=O)c1ccc([N+](=O)[O-])cc1 (configuration not stated),23.7 µM (inactive),> 100 µM (inactive),> 100 µM (inactive),66.1 µM (inactive),> 100 µM (inactive),56 µM (inactive),28.8 µM (inactive),–,> 100 µM (inactive),57.8 µM (inactive),> 100 µM (inactive),> 100 µM (inactive),> 100 µM (inactive),> 100 µM (inactive),29.3 µM (inactive),99.3 µM (inactive),> 100 µM (inactive),> 100 µM (inactive),95.3 µM (inactive),–
Oc1ccc([C@H]2c3c(O)cc(O)cc3C3c4c(cc(O)cc4[C@@H]2[C@H]2c4cc(O)cc5c4C(c4cc(O)cc(O)c4[C@@H]2c2ccc(O)cc2)[C@@H](c2ccc(O)cc2)O5)O[C@@H]3c2ccc(O)cc2)cc1 (some centres not stated),0.0486 µM (active),0.182 µM (active),0.391 µM (active),> 100 µM (inactive),0.0211 µM (active),> 100 µM (inactive),1.09 µM (active),–,16.9 µM (inactive),3.55 µM (inactive),> 100 µM (inactive),0.861 µM (active),6.25 µM (inactive),0.526 µM (active),> 100 µM (inactive),0.569 µM (active),–,41.4 µM (inactive),1.61 µM (inactive),0.5 µM (active)
COc1ccc2nc3ccc(OC)cc3c(SCc3ccccc3)c2c1,> 100 µM (inactive),> 85.7 µM (inactive),> 100 µM (inactive),> 100 µM (inactive),> 100 µM (inactive),> 100 µM (inactive),> 100 µM (inactive),> 100 µM (inactive),> 32.9 µM (inactive),> 88.3 µM (inactive),> 80.7 µM (inactive),> 100 µM (inactive),> 33.1 µM (inactive),64.7 µM (inactive),> 100 µM (inactive),> 100 µM (inactive),> 74.3 µM (inactive),48.8 µM (inactive),> 100 µM (inactive),> 88.7 µM (inactive)
O=C(Nc1nn(C(=O)c2cccnc2)c(=O)s1)c1ccc(Cl)cc1,15.6 µM (inactive),> 100 µM (inactive),61.1 µM (inactive),> 100 µM (inactive),61.7 µM (inactive),> 100 µM (inactive),> 100 µM (inactive),56.2 µM (inactive),> 100 µM (inactive),74 µM (inactive),76.6 µM (inactive),> 100 µM (inactive),> 100 µM (inactive),> 100 µM (inactive),> 100 µM (inactive),43.1 µM (inactive),> 100 µM (inactive),–,20.7 µM (inactive),29.4 µM (inactive)
CCOC(=O)c1nc2cc(C(F)(F)F)ccc2nc1Oc1ccc(OC)cc1,50.9 µM (inactive),> 100 µM (inactive),> 100 µM (inactive),> 100 µM (inactive),> 100 µM (inactive),> 100 µM (inactive),–,–,74.6 µM (inactive),> 100 µM (inactive),> 100 µM (inactive),–,> 100 µM (inactive),–,> 100 µM (inactive),> 100 µM (inactive),> 100 µM (inactive),45.4 µM (inactive),> 100 µM (inactive),> 100 µM (inactive)
